Like-named read-outs stand apart in the source and are kept apart here.
What was measured:
[1] = target: acetylcholinesterase (AChE) (Electrophorus electricus, UniProt O42275); assay: biochemical; type: biochemical; conditions: for inhibition at 62.5 µg/mL / inhibition at 125 µg/mL / inhibition at 250 µg/mL / inhibition at 500 µg/mL / inhibition at 1000 µg/mL: read-out: Inhibition of Acetylcholinesterase (%AChE Activity)
Method: The synthesized compounds were evaluated for acetylcholinesterase (ACh) and butyrylcholinesterase (BCh) enzyme inhibitory activities.
(§1) The enzymes acetylcholinesterase (AChE) and butyrylcholinesterase (BChE) play an important role in the transfer of signals and physiological function. They assist acetylcholine to hydrolyze and produce choline and acetyl group in synaptic region. So, they are considered as targets in the management of Alzheimer’s disease. Herein, the compounds under study were evaluated for their potential to inhibit acetylthiocholine iodide (AChI) and butyrylthiocholine iodide (BChI) enzymes.
(§2) The well-known Ellman’s assay was implemented to evaluate the inhibitory potential using acetylthiocholine iodide (AChI) and butyrylthiocholine iodide (BChI) as substrates, respectively. The basic principle of the assay is the hydrolysis of acetylthiocholine iodide and butyrylthiocholine iodide by their corresponding enzymes, resulting in the formation of 5-thio-2-nitrobenzoate anion.
(§3) To carry out the assay, 0.1 M buffer solution with pH 8 was prepared as per the cited literature where the pH was adjusted using KOH (potassium hydroxide). Using the freshly prepared buffer and following the dilution, final concentrations of 0.03 U/mL for AChE (518 U/mg solid) and 0.01 U/mL for BChE (7–16 U/mg) were obtained. […] After that, the final solution of each of the AChE and BChE was prepared in distilled water in the presence of […] DTNB and were stored at 8 °C. The experiment was performed by taking 205 µL of inhibitor (tested compound) along with 5 µL of prepared solutions of enzymes, followed by the addition of 5 μL DTNB reagent. They were then incubated for about 15 min in a water bath at a temperature of 30 °C. Later on, 5 µL substrate solution was added to them which were subjected to absorption check at 412 nm. […] The temperature of the spectrophotometer was adjusted at 30 °C and then, following the reaction time of 4 min, the absorbance values were noted after regular intervals. The experiment was repeated, and change in absorption with time was used to calculate the percentage activity of enzyme and enzyme inhibitor [59]. The p values, or calculated probability levels, are categorized as: 5% (p < 0.05), 1% (p < 0.01) and 0.1% (p < 0.001). p < 0.05 means statistically significant and p < 0.001 means highly statistically significant.

[2] = target: butyrylcholinesterase (BChE) (Equus caballus, UniProt P81908); assay: biochemical; conditions: for inhibition at 62.5 µg/mL / inhibition at 125 µg/mL / inhibition at 250 µg/mL / inhibition at 500 µg/mL / inhibition at 1000 µg/mL: read-out: inhibition of butyrylcholinesterase (% BChE activity)
Method: as §1, §2, §3

[3] = DPPH scavenging assay; conditions: for DPPH Free Radical Scavenging Ability: mean ± S.E.M, n = 3
Text: The antioxidant potential of the free acids and their Cu(II) carboxylates was explored via the DPPH method using ascorbic acid as a reference. The DPPH, with a single unpaired electron, is capable of accepting a hydrogen or electron and gives a strong absorption at 517 nm. The absorption generally decreases when it accepts a hydrogen or electron from an antioxidant, forming a stable molecule. The results given in Table 5 indicate that the compounds under study show a moderate level of antioxidant potential. This activity may be attributed to the various structural and electronic factors like coordination geometry, redox properties, chelate ring size, degree of unsaturation, etc.. The transfer of proton or electron from an antioxidant to DPPH results in the formation of species that undergo other reactions like coupling, fragmentation, and addition, which affect the rate and stoichiometry of the reaction.
The compounds under study were subjected to DPPH scavenging ability test as per cited literature. A 0.004% solution of reagent DPPH was added to the different concentrations of tested compounds (i.e., 125, 250, 500 and 1000 μg/mL) and the reaction mixture was incubated subsequently for about thirty minutes in dark. Ascorbic acid was used as positive control. The UV-3000 O.R.I. Germany was used to record the change in absorption of the reaction mixture at 517 nm and the percentage scavenging ability of the compounds under study was determined using formula: % scavenging activity =Absorbance of control−Absorbance of compounds /Absorbance of control×100
The experiments were repeated thrice. The GraphPad Prism® (version 4.0, Sandiego, CA, USA) was used to calculate the IC50 values.

[4] = DPPH scavenging assay; conditions: Comp. Conc. 62.5 µg/mL; mean ± S.E.M, n = 3
[5] = Hydrogen peroxide scavenging assay; conditions: for H2O2 free radical scavenging ability: mean ± S.E.M, n = 3
Method: In addition to DPPH the ligand acids and their complexes were also evaluated for their peroxide scavenging ability test. Hydrogen peroxide (H2O2) is a biologically important, non-radical reactive oxygen species (ROS) that can influence several cellular processes. It is a weak oxidizing agent and can inactivate a few enzymes directly, usually via oxidation of essential thiol (-SH) groups. It can cross cell membranes rapidly, and inside the cell, H2O2 probably reacts with Fe^2+ (and possibly Cu^2+) ions to form the hydroxyl radical, which may be the origin of many of its toxic effects. It is, therefore, biologically advantageous for cells to control the amount of hydrogen peroxide that is allowed to accumulate.
The ligand acids and their Cu(II) carboxylates were further subjected to H2O2 scavenging ability test potential by following the procedure as per cited literature. A 2 mM solution of H2O2 was made in 50 mM phosphate buffer having a pH 7.4. In the next step, 0.1 mL of the screened compounds was added to the 0.3 mL (50 mM) of phosphate buffer, then 0.6 mL of H2O2 was added and the solution was vortexed. After following the incubation period of 10 min, the absorption was 230 nm in comparison to the blank.

Sequence of acetylcholinesterase (AChE) (O42275 24-633): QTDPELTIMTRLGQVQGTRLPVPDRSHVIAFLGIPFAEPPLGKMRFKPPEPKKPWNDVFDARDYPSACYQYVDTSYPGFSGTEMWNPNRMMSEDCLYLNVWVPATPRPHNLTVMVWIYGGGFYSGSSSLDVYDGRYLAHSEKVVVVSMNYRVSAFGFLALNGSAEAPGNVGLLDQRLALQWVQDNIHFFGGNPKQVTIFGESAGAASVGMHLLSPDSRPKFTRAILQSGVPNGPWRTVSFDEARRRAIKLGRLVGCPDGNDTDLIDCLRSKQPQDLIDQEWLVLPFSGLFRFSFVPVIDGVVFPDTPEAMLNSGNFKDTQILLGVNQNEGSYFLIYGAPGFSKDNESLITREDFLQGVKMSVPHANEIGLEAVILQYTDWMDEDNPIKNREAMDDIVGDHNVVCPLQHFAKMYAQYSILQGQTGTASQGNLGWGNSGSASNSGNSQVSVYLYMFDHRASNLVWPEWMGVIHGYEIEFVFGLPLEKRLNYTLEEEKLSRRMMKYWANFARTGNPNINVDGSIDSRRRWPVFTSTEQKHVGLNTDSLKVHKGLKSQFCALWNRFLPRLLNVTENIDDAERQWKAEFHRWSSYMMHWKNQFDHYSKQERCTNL
Sequence of butyrylcholinesterase (BChE) (P81908 whole entry): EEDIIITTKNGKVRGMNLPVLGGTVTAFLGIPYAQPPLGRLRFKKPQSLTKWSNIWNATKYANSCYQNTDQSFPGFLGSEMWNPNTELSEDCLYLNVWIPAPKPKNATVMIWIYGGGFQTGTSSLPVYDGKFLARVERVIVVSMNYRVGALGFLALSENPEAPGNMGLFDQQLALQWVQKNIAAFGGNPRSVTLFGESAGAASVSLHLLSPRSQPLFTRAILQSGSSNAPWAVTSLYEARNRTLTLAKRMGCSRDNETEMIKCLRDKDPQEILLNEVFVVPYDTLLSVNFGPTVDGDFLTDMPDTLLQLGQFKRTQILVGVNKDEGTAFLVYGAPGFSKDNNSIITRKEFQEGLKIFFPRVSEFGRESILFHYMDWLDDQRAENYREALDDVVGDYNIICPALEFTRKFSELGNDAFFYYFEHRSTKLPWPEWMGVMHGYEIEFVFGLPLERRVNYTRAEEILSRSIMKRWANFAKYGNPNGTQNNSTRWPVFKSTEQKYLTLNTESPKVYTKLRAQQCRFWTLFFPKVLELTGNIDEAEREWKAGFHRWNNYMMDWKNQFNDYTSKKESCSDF

SMILES | IC50, Inhibition of Acetylcholinesterase [1] | Inhibition of Acetylcholinesterase (%AChE Activity) ([1]; Comp. Conc. 62.5 µg/mL, n = 3) | Inhibition of Acetylcholinesterase (%AChE Activity) ([1]; Comp. Conc. 125 µg/mL, n = 3) | Inhibition of Acetylcholinesterase (%AChE Activity) ([1]; Comp. Conc. 250 µg/mL, n = 3) | Inhibition of Acetylcholinesterase (%AChE Activity) ([1]; Comp. Conc. 500 µg/mL, n = 3) | Inhibition of Acetylcholinesterase (%AChE Activity) ([1]; Comp. Conc. 1000 µg/mL, n = 3) | IC50, inhibition of butyrylcholinesterase [2] | inhibition of butyrylcholinesterase (% BChE activity) ([2]; Comp. Conc. 62.5 µg/mL, n = 3) | inhibition of butyrylcholinesterase (% BChE activity) ([2]; Comp. Conc. 125 µg/mL, n = 3) | inhibition of butyrylcholinesterase (% BChE activity) ([2]; Comp. Conc. 250 µg/mL, n = 3) | inhibition of butyrylcholinesterase (% BChE activity) ([2]; Comp. Conc. 500 µg/mL, n = 3) | inhibition of butyrylcholinesterase (% BChE activity) ([2]; Comp. Conc. 1000 µg/mL, n = 3) | IC50, DPPH Free Radical Scavenging Ability [3] | DPPH Free Radical Scavenging Ability ([3]; Comp. Conc. 125 µg/mL) | DPPH Free Radical Scavenging Ability ([3]; Comp. Conc. 250 µg/mL) | DPPH Free Radical Scavenging Ability ([3]; Comp. Conc. 500 µg/mL) | DPPH Free Radical Scavenging Ability ([3]; Comp. Conc. 1000 µg/mL) | DPPH Free Radical Scavenging Ability [4] | IC50, H2O2 free radical scavenging ability [5] | H2O2 free radical scavenging ability ([5]; Comp. Conc. 62.5 µg/mL) | also measured
N#Cc1cccnc1.N#Cc1cccnc1.O=C([O-])Cc1cccc(Cl)c1.O=C([O-])Cc1cccc(Cl)c1.O=C([O-])Cc1cccc(Cl)c1.O=C([O-])Cc1cccc(Cl)c1.[Cu+2].[Cu+2] [Complex 4, Cu2(3-ClC6H4COO)4(3-CNPy)2] | 6 µg/mL | 67.90 ± 1.16 % | 72.34 ± 0.55 % | 78.36 ± 0.49 ^⸸ % | 83.39 ± 0.49 % | 89.39 ± 0.60 % | 03 µg/mL | 68.52 ± 0.38 % | 72.64 ± 0.16 % | 77.61 ± 1.70 % | 81.94 ± 0.45 % | 86.47 ± 0.22 ^⸸ % | 8.45 µg/mL | 68.30 ± 0.64 % | 73.34 ± 0.63 % | 78.30 ± 0.64 % | 83.17 ± 0.72 % | 61.93 ± 1.13 % | 8.71 µg/mL | 63.47 ± 0.56 % | H2O2 free radical scavenging ability ([5]; Comp. Conc. 125 µg/mL): 67.74 ± 0.61 %; H2O2 free radical scavenging ability ([5]; Comp. Conc. 250 µg/mL): 73.67 ± 0.61 %; H2O2 free radical scavenging ability ([5]; Comp. Conc. 500 µg/mL): 78.76 ± 0.58 %; H2O2 free radical scavenging ability ([5]; Comp. Conc. 1000 µg/mL): 85.00 ± 0.30 ^⸸ %
O=C(O)Cc1cccc(Cl)c1 [L^2, 3-chlorophenyl acetic acid] | – | – | – | – | – | – | – | – | – | – | – | – | – | – | – | – | – | – | – | – | IC50 [1]: 234 µM; inhibition at 62.5 µg/mL [1]: 50.35 ± 0.11%; inhibition at 125 µg/mL [1]: 54.02 ± 0.24%; inhibition at 250 µg/mL [1]: 57.34 ± 0.35%; inhibition at 500 µg/mL [1]: 62.29 ± 0.32%; inhibition at 1000 µg/mL [1]: 65.39 ± 0.4%; IC50 [2]: 234 µM; inhibition at 62.5 µg/mL [2]: 58.15 ± 0.22%; inhibition at 125 µg/mL [2]: 63.4 ± 0.71%; inhibition at 250 µg/mL [2]: 68.39 ± 0.35%; inhibition at 500 µg/mL [2]: 73.42 ± 0.12%; inhibition at 1000 µg/mL [2]: 77.73 ± 0.03%
O=C([O-])Cc1ccccc1Cl.O=C([O-])Cc1ccccc1Cl.O=C([O-])Cc1ccccc1Cl.O=C([O-])Cc1ccccc1Cl.Oc1ccncc1.Oc1ccncc1.[Cu+2].[Cu+2] [Complex 3, Cun(2-ClC6H4COO)4(4-OHPy)2] | 17 µg/mL | 62.98 ± 0.72 % | 67.90 ± 0.96 % | 72.91 ± 0.88 % | 77.08 ± 0.47 % | 81.03 ± 0.35 % | 25 µg/mL | 60.2 ± 0.98 % | 63.3 ± 1.10 % | 68.2 ± 0.88 % | 73.2 ± 0.98 % | 76.8 ± 1.20 % | 21.72 µg/mL | 62.50 ± 0.44 % | 66.33 ± 0.33 % | 74.66 ± 1.20 % | 79.00 ± 0.16 % | 53.00 ± 0.57 % | 11.47 µg/mL | 61.30 ± 0.52 % | H2O2 free radical scavenging ability ([5]; Comp. Conc. 125 µg/mL): 66.37 ± 0.58 %; H2O2 free radical scavenging ability ([5]; Comp. Conc. 250 µg/mL): 72.29 ± 0.43 %; H2O2 free radical scavenging ability ([5]; Comp. Conc. 500 µg/mL): 78.58 ± 0.56 %; H2O2 free radical scavenging ability ([5]; Comp. Conc. 1000 µg/mL): 84.39 ± 0.60 %
O=C(O)Cc1ccccc1Cl [L^1, 2-chlorophenyl acetic acid] | – | – | – | – | – | – | – | – | – | – | – | – | – | – | – | – | – | – | – | – | inhibition at 62.5 µg/mL ([1]; Comp. Conc. 62.5 µg/mL, n = 3): 50.35 ± 0.11%; inhibition at 125 µg/mL ([1]; Comp. Conc. 125 µg/mL, n = 3): 54.02 ± 0.24%; inhibition at 250 µg/mL ([1]; Comp. Conc. 250 µg/mL, n = 3): 57.34 ± 0.35%; inhibition at 500 µg/mL ([1]; Comp. Conc. 500 µg/mL, n = 3): 62.29 ± 0.32%; inhibition at 1000 µg/mL ([1]; Comp. Conc. 1000 µg/mL, n = 3): 65.39 ± 0.4%; inhibition at 62.5 µg/mL ([2]; Comp. Conc. 62.5 µg/mL, n = 3): 58.15 ± 0.22%; inhibition at 125 µg/mL ([2]; Comp. Conc. 125 µg/mL, n = 3): 63.4 ± 0.71%; inhibition at 250 µg/mL ([2]; Comp. Conc. 250 µg/mL, n = 3): 68.39 ± 0.35%; inhibition at 500 µg/mL ([2]; Comp. Conc. 500 µg/mL, n = 3): 73.42 ± 0.12%; inhibition at 1000 µg/mL ([2]; Comp. Conc. 1000 µg/mL, n = 3): 77.73 ± 0.03%; IC50 ([2]; read-out: IC50, inhibition of butyrylcholinesterase (converted)): 258 µM

Source: PMC10224544, “Synthesis, Structural Elucidation and Pharmacological Applications of Cu(II) Heteroleptic Carboxylates” (Pharmaceuticals, 2023)
